Laboratory results taken from PubChem BioAssay (NCI).
Where “and” joins values, the source holds several entries; their conditions need not be identical. Identical values can stand only once.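 48-hour exposure; five concentrations; linearly interpolated endpoints. At the GI50, growth is halved. Definition used: TGI = concentration required for complete inhibition of growth.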

Assays:
Test in all cases: NCI anticancer screen, dose series, 48 h
SF-295 CNS = system: SF-295 CNS
HCT-116 colon = system: HCT-116 colon
NCI-H522 lung = system: NCI-H522 lung
NCI-H23 lung = system: NCI-H23 lung
SW-620 colon = system: SW-620 colon
SK-OV-3 ovarian = system: SK-OV-3 ovarian
SNB-75 CNS = system: SNB-75 CNS
U251 CNS = system: U251 CNS
SF-539 CNS = system: SF-539 CNS
TK-10 renal = system: TK-10 renal

Row | SMILES | GI50 (SF-295 CNS) [µM] | TGI (SF-295 CNS) | GI50 (HCT-116 colon) [µM] | TGI (HCT-116 colon) | GI50 (NCI-H522 lung) [µM] | TGI (NCI-H522 lung) | GI50 (NCI-H23 lung) [µM] | TGI (NCI-H23 lung) | GI50 (SW-620 colon) [µM] | TGI (SW-620 colon) | GI50 (SK-OV-3 ovarian) [µM] | TGI (SK-OV-3 ovarian) | GI50 (SNB-75 CNS) [µM] | TGI (SNB-75 CNS) | GI50 (U251 CNS) [µM] | TGI (U251 CNS) | GI50 (SF-539 CNS) [µM] | TGI (SF-539 CNS) | GI50 (TK-10 renal) [µM] | TGI (TK-10 renal)
1 | C/C=C(\C)C(=O)N[C@H]1CC[C@]2(C)C3CC[C@@]4(C)C(CC[C@@H]4C(C)N(C)C)C3CCC2[C@H]1OC(C)=O (stereo not given in full) | 1.88 | 4.05 µM | 1.04 | 2.42 µM | 2.14 | 5.24 µM | 1.91 | 5.01 µM | 1.53 | 3.05 µM | 2.06 | 4.27 µM | 1.65 | 3.59 µM | 1.55 | 3.56 µM | 1.16 | 2.53 µM | 2.16 | 4.59 µM
2 | COc1cc(/C=C2\[C@H]3c4c(c(OC)c(C)c(OC)c4OC)C[C@@H](C(=O)N2Cc2ccccc2)N3C(=O)OCC(C)C)c(OC)c(C)c1OC |  | > 100 µM |  | > 100 µM |  | > 100 µM |  | > 100 µM |  | > 31.6 µM |  | > 100 µM |  | > 100 µM |  | > 100 µM |  | > 100 µM |  | > 100 µM
3 | CCCN(CCC)C(=O)C1=Cc2ccc(-c3ccc(C(=O)N4CCCC4)cc3)cc2N=C(N)C1 | 4.92 | 24.5 µM | 4.55 | 19.2 µM | 4.68 | 18.8 µM | 8.92 | 38.9 µM | 7.1 | 31.8 µM | 18.2 | 87 µM | 3.8 | 30.6 µM | 7.69 | 24.6 µM | 11.7 | 27 µM | 19.6 | 70.1 µM
4 | COc1cccc(C2c3cc4c(cc3OC(C)(O)C2C)OCO4)c1O (stereo not given) |  | 14.1 µM |  | 19.7 µM |  | 5.6 µM |  | 12.4 µM |  | > 100 µM |  | 42.8 µM |  | 30.8 µM |  | 21.1 µM |  | 8.65 µM |  | 51 µM
5 | COc1ccc2c(c1)C(=O)/C(=C/c1cccc(OCC(=O)Nc3nc4c(s3)CCCC4)c1)O2 | 3.7 | 15.8 µM | 1.13 | 2.34 µM | 0.704 | 2.25 µM | 0.636 | 5.62 µM | 0.805 | 2.07 µM | 11.8 | 25.1 µM | 1.75 | 12 µM | 0.772 | 4.97 µM | 1.32 | 2.69 µM | 0.45 | 0.934 µM
6 | COc1ccc(-c2[nH]c3ccccc3c2C=C(C#N)C#N)cc1 | 0.331 | 6.3 µM | 0.41 | > 21.1 µM | 0.798 | 10.3 µM | 0.6 | > 42.8 µM | 0.435 | > 100 µM | 0.434 | 5.89 µM | 0.412 | 20.5 µM | 0.479 | > 100 µM | 0.262 | 0.795 µM | 0.917 | > 71.7 µM
7 | O=C(Nc1ccccc1O)c1cccc(NC2=C(Cl)C(=O)N(Cc3ccccc3)C2=O)c1 | 4.46 | 12.5 µM | 2.97 | 12.1 µM | 9.02 | 28.5 µM | 3.44 | 9.38 µM | 2.12 | 5.06 µM | 12.8 | 31.5 µM | 13.5 | 33.1 µM | 3.38 | 13.9 µM | 10.7 | 25.4 µM | 4.69 | 13.4 µM
8 | COC(=O)NC1C(C)OC(OC2C/C=C(/C)C3C=CC4C(OC5CC(OC6CC(O)C(OC7CC(O)C(OC)C(C)O7)C(C)O6)C(O)C(C)O5)C(C)CC(C)C4C3(C)/C(O)=C3\C(=O)OC4(CC(C)C(CO)=CC4/C=C\2C)C3=O)CC1(C)[N+](=O)[O-] (stereo not given) |  | 50 µM and 38.9 µM | 8.04 | 14.8 µM and 23.4 µM |  | 11.7 µM and 22.7 µM | 8.68 | 17.2 µM and 27.8 µM |  | 19.7 µM and 35.2 µM | 10.3 | 50 µM and 20.9 µM | 11 | 33.5 µM and 46.2 µM |  | 32.2 µM and 27.6 µM | 11.6 | 24.9 µM and 37.7 µM | 25.8 | 32.5 µM and 81.2 µM
9 | CC1=NN(c2ccccc2)C(=O)C1N=Nc1ccc([As](=O)(O)O)c(O)c1 (stereo not given) |  | > 100 µM |  | > 100 µM |  | > 100 µM |  | > 100 µM |  | > 100 µM |  | > 100 µM |  | > 100 µM |  | > 100 µM |  | > 100 µM |  | > 100 µM
10 | Cc1cc(N2CCCCC2)nc(N(CCCNc2ccnc3cc(Cl)ccc23)Cc2ccco2)n1 | 1.29 | 3.59 µM | 1.15 | 3.28 µM | 2.63 | 7.69 µM | 1.58 | 3.8 µM | 1.61 | 4.37 µM | 3.35 | 13.2 µM | 3.36 | 16.8 µM | 1.8 | 3.76 µM | 1.61 | 3.19 µM | 2.63 | 8.12 µM
11 | Cc1cc(NS(=O)(=O)c2ccc(N=Nc3cc(N=Nc4ccc(S(=O)(=O)Nc5cc(C)nc(C)n5)cc4)c4c(NC(=O)C(Cl)Cl)cccc4c3OC(=O)C(Cl)Cl)cc2)nc(C)n1 (tested in a mixture with another compound) |  | 77.6 µM |  | > 100 µM |  | 38.5 µM |  | 78.3 µM |  | 40.4 µM |  | > 100 µM |  | 76.9 µM |  | 32.8 µM |  | 42.8 µM |  | 88.1 µM
12 | CCOC(=O)/C(=C\c1ccc(O)c(OC)c1)C(=O)c1ccccc1 |  | > 52.6 µM |  | 28.7 µM |  | 21.9 µM |  | 23.7 µM |  | 32.4 µM |  | > 61.4 µM |  | 89.5 µM |  | 36.2 µM |  | 28 µM |  | > 57.5 µM
13 | O=S(=O)(O)O.[NH-]C1CCCCC1[NH-].[Pt+2] (stereo not given) | > 100 | > 100 µM | 43.4 | > 100 µM | 23.6 | > 100 µM | > 100 | > 100 µM | 5.33 | > 100 µM | > 100 | > 100 µM | 0.722 | 61.5 µM | > 100 | > 100 µM | > 100 | > 100 µM | > 100 | > 100 µM
14 | Oc1ccc(-c2nnc3sc(-c4ccc(F)c(Oc5ccccc5)c4)nn23)cc1 | 23.2 | 59.9 µM | 23.5 | > 100 µM | 72.5 | > 100 µM | 29.3 | 92.2 µM | 83 | > 100 µM | 44.6 | > 100 µM | 26.4 | 62.1 µM | 17.5 | 36.5 µM | 24.2 | 65 µM | 29.6 | 77 µM
15 | COc1cc(C(=O)c2ccc3c(c2)OCO3)cc(OC)c1OC | 1.55 |  | 2.08 | > 100 µM | 1.4 | 8.84 µM | 4.93 | > 100 µM | 0.621 | > 100 µM | 2.84 | 33.1 µM | 1.39 | 5.03 µM | 2.81 | > 100 µM | 1.95 | 7.52 µM | 4.44 | > 100 µM
16 | Cc1ccc(NC(=O)C(=O)C2C(=O)N(c3ccccc3)N=C2N)cc1C (stereo not given) |  | > 100 µM |  | > 100 µM |  | > 100 µM |  | > 100 µM |  | > 100 µM |  | > 100 µM |  | > 100 µM |  | > 100 µM |  | > 100 µM |  | > 100 µM
17 | COC(=O)C1=C(O)c2cc(OC)c(OC)c(OC)c2[C@H](c2cc(OC)c(OC)c(OC)c2)C1C(=O)OC (stereo not given in full) |  | 98.1 µM |  | > 100 µM |  | 43.5 µM |  | > 100 µM |  | > 100 µM |  | > 100 µM |  | > 100 µM |  | > 100 µM |  | 38.9 µM |  | > 100 µM
